Assay results from patent US20260374767A1, “FUSED HETEROCYCLIC COMPOUNDS AND USES THEREOF” (Chengdu Zenitar Biomedical Technology Co., Ltd., priority 2022, published 2026).

Key:
breast cancer MDA-MB-436 [1] = test: Challenge experiment on subcutaneous xenograft tumor model of breast cancer MDA-MB-436 (large-volume tumors)
Procedure: Each group consisted of 5 mice and was administered orally once per day. The body weight of the mice was measured every 2 days, and the length and width of the tumors with a vernier caliper.

[2] = Pharmacokinetic evaluation in Balb/c mice; type: in vivo; conditions: 1 mg/kg orally
Procedure: Pharmacokinetic Evaluation of Compound in Balb/c Mice
(§2) Experimental purpose: To learn pharmacokinetic profiles of compounds.
Experimental scheme: The pharmacokinetic profile of the compound was investigated by means of administering it intravenously (1 mg kg^−1) and orally (1 mg kg^−1) to Balb/c mice.
Sample preparation: About 0.2 mg of the compound was dissolved in 10 μL DMSO, then a sodium chloride injection was added to make a 0.1 mg mL^−1 solution of the compound for administration.
Three mice were administered the compound intravenously (IV) at a dose of 1 mg kg^−1, and the other three were administered the compound orally (PO) at the same dose. […] The plasma concentration of the drug was quantitatively analyzed with the LC-MS/MS method, and pharmacokinetic parameters were calculated, including the time to peak concentration (Cmax), area under the concentration-time curve (AUC(0-t)), half-life (T1/2), clearance (CL), volume of distribution at steady state (Vdss), and bioavailability (F).

[3] = Pharmacokinetic evaluation in SD rat; type: in vivo; conditions: SD rats
Procedure: Pharmacokinetic Evaluation of Compound in SD Rat
as §2
Experimental scheme: The pharmacokinetic profile of the compound was investigated by oral intravenous administration in SD rats.
Experimental procedure: The compound, a small amount of DMSO and a sodium chloride injection were added to prepare the final solution for administration. The compound was orally administered to 6 male SD rats. […] The supernatant was collected and transferred into a sample vial for assay. Range of standard curve: 10-10,000 ng mL^−1.

DLD-1 cells = test: Anti-proliferative activity assay, BRCA wild-type DLD-1 cells (CCK8); type: cell-based; conditions: Homo sapiens, 72 h + 96 h
Text: (§1) 2. Anti-Proliferative Activity Assay of Cell:

[4] = Body weight in MDA-MB-436 xenograft study; type: in vivo, NOD/SCID mice; conditions: for Body weight X ± SD, End: 24 days
Procedure: Animal assay: all viable experimental animals scheduled for assay; Assay time: All animals were weighed before the modeling for test grouping. After modeling, the mice were weighed once every 2 days, and the weight change of the mice was recorded in real time. Effective criteria: tumor volume (TV), relative tumor volume (RTV) and relative tumor growth rate of subcutaneously implanted tumor model. The long diameter and short diameter of the tumor was measured with vernier calipers every 2 days, and the anti-tumor effects of the tested drug was dynamically observed. The calculation formula of tumor volume (TV) was: TV (mm^3)=a×b2×0.5, where a and b were the long diameter and short diameter, respectively.
Each group consisted of 6 mice, all of which are administered orally once daily. […] After 24 days of administration, the tumor-bearing mice were anesthetized and euthanized. The tumor tissues were dissected, weighed, and photographed, and the tumor inhibition rate was calculated.

breast cancer MDA-MB-436 [5] = test: In-vivo pharmacodynamic study on subcutaneous xenograft tumor model of breast cancer MDA-MB-436; set-up: species or system human tumor cells in NOD/SCID mice
Procedure: Strain: NOD/SCID; Grade: SPF; Source: Beijing Vitron River Bio-technology Co., Ltd.
The cells were washed 3 times with pre-cooled PBS, centrifuged at 300 g for 10 min, collected, re-suspended in PBS, and counted with a blood cell counting chamber, and the cell concentration was adjusted. After cell collection, the cell suspension was pre-cooled on ice. 100 μL of the cell suspension was administered via subcutaneous injection into the dorsal flank of the mice, and the grouped treatment was started when the tumor volume reached 200-300 mm^3.
Animal assay: all viable experimental animals scheduled for assay; Assay time: All animals were weighed before the modeling for test grouping. After modeling, the mice were weighed once every 2 days, and the weight change of the mice was recorded in real time. Effective criteria: tumor volume (TV), relative tumor volume (RTV) and relative tumor growth rate of subcutaneously implanted tumor model. […] The calculation formula of tumor volume (TV) was: TV (mm^3)=a×b2×0.5, where a and b were the long diameter and short diameter, respectively.
The evaluation index for anti-tumor activity was the relative tumor growth rate T/C (%), and the calculation formula was as follows: […]
Where, TRTV is relative tumor volume of the treatment group; CRTV is relative tumor volume of the negative control group. […] The tumor inhibition rate (%) was calculated by the formula below: […]
All raw data within the facility were collected manually according to the experimental scheme and the relevant guidelines of the research institution, or gathered by using a data acquisition system. Manually collected data can be transcribed into software such as Excel for analysis and reporting. The data from each group were quantitative, and the experimental data for each group of animals in the tables were expressed as mean±standard deviation (Mean±SD). In the figures, the experimental data ware described as mean±standard error of the mean (Mean±SEM). Statistical analysis, including t-tests and survival analysis, was performed by using the software such as EXCEL and GraphPad Prism.
After 24 days of administration, the tumor-bearing mice were anesthetized and euthanized. The tumor tissues were dissected, weighed, and photographed, and the tumor inhibition rate was calculated.

gastric cancer PDX = test: In-vivo pharmacodynamic study on PDX gastric cancer mice model; set-up: species or system patient-derived tumor in mice
Procedure: 7. In-Vivo Pharmacodynamic Study of Compound 6 on PDX Gastric Cancer Mice model
Experimental procedure: Tumor tissues from gastric cancer patients were used to establish a stable passaged tumor-bearing mice model. In this study, tumor fragments from mice that had been stably passaged three times were used for subcutaneous inoculation. Eight groups were divided for the experiment, with 6 mice in each group. The negative control group (Control) received normal saline at 0.2 mL per mice per administration, given orally once per day; the carboplatin control group (Carboplatin, Car) received 20 mg/kg at 0.2 mL per mice per administration, administered via intraperitoneal injection once every 7 days.

MDA-MB-436 cells = test: Anti-proliferative activity assay, BRCA-mutated MDA-MB-436 cells (CCK8); type: cell-based; conditions: Homo sapiens, MDA-MB-436, BRCA-mutated, 72 h + 96 h
Text: as §1

SUM14PT = test: In-vivo pharmacodynamic study on subcutaneous xenograft tumor model of breast cancer SUM14PT; set-up: species or system nude mice
Procedure: Experimental procedure: In this study, a mice model was established by subcutaneously inoculating SUM14PT tumor cells. Eight groups were divided for the experiment, with 6 mice in each group. The negative control group (Control) received normal saline at 0.2 mL per mice per administration, given orally once per day; the carboplatin control group (Carboplatin, Car) received 20 mg/kg at 0.2 mL per mice per administration, administered via intraperitoneal injection once every 7 days.

[6] = 0.03 mg/kg orally once daily, 24 days
[7] = 0.1 mg/kg orally once daily, 24 days
[8] = 0.3 mg/kg orally once daily, 24 days

[2H]C([2H])([2H])C([2H])([2H])c1cc2ncc(CN3CC=C(c4ccc(C(=O)NC)nc4)CC3)cc2[nH]c1=O [Compound 6, 1′-((7-(ethyl-d5)-6-oxo-5,6-dihydro-1,5-naphthyridin-3-yl)methyl)-N-methyl-1′,2′,3′,6′-tetrahy dro-[3,4′-bipyridine]-6-carboxamide]
rate of tumor regression, comparison with compounds 1 and 21 (breast cancer MDA-MB-436 [1]; 1 mg/kg orally once per day): faster rate of tumor regression compared to the compounds 1 and 21 | tumor regression in large-volume tumors (breast cancer MDA-MB-436 [1]; 1 mg/kg orally once per day): complete regression of tumors | in-vivo anti-tumor efficacy, comparison with compounds 1 and 21 (breast cancer MDA-MB-436 [1]; 1 mg/kg, same dose): stronger in-vivo anti-tumor efficacy than compounds 1 and 21 | Cmax, comparison with AZD5305 and compounds 1, 2, 3, 15, 21 [2]: superior to that of the reference compound 5305, as well as compounds 1, 2, 3, 15, and 21 | Cmax, comparison with AZD5305, compound 1 and compound 21 [3]: superior to those of the reference compound AZD5305, compound 1 and compound 21 | IC50 (DLD-1 cells): > 10000 nM | Body weight X ± SD, End ([4]; 0.03 mg/kg orally once daily): 21.6 ± 0.7 g | Body weight X ± SD, Start ([4]; 0.03 mg/kg orally once daily): 22.6 ± 0.7 g | Body weight X ± SD, End ([4]; 0.1 mg/kg orally once daily): 21.6 ± 0.7 g | Body weight X ± SD, Start ([4]; 0.1 mg/kg orally once daily): 22.3 ± 1.0 g | Body weight X ± SD, End ([4]; 0.3 mg/kg orally once daily): 22.0 ± 0.9 g | Body weight X ± SD, Start ([4]; 0.3 mg/kg orally once daily): 22.3 ± 0.8 g | Tumor inhibition rate (breast cancer MDA-MB-436 [5]; [6]): 49.77% | Tumor weight X ± SD (breast cancer MDA-MB-436 [5]; [6]): 1.09 ± 0.29 g | Tumor volume X ± SD, End (breast cancer MDA-MB-436 [5]; [6]): 739.4 ± 308.7 mm^3 | Tumor volume X ± SD, Start (breast cancer MDA-MB-436 [5]; 0.03 mg/kg orally once daily): 275.0 ± 68.1 mm^3 | Tumor inhibition rate (breast cancer MDA-MB-436 [5]; [7]): 86.73% | Tumor weight X ± SD (breast cancer MDA-MB-436 [5]; [7]): 0.29 ± 0.09 g | Tumor volume X ± SD, End (breast cancer MDA-MB-436 [5]; [7]): 228.0 ± 75.9 mm^3 | Tumor volume X ± SD, Start (breast cancer MDA-MB-436 [5]; 0.1 mg/kg orally once daily): 274.7 ± 73.8 mm^3 | tumor inhibition effect, comparison with AZD5305, compound 1 and Olaparib (breast cancer MDA-MB-436 [5]; 0.1 mg/kg vs same dose of AZD5305 and compound 1, vs Olaparib 100 mg/kg): superior to that of the reference compound AZD5305 and the compound 1 at the same dose, and significantly better than that of the reference drug Olaparib group (100 mg/kg) | Tumor inhibition rate (breast cancer MDA-MB-436 [5]; [8]): 95.83% | Tumor weight X ± SD (breast cancer MDA-MB-436 [5]; [8]): 0.09 ± 0.08 g | Tumor volume X ± SD, End (breast cancer MDA-MB-436 [5]; [8]): 71.0 ± 62.5 mm^3 | Tumor volume X ± SD, Start (breast cancer MDA-MB-436 [5]; 0.3 mg/kg orally once daily): 281.9 ± 67.4 mm^3 | complete tumor regression (breast cancer MDA-MB-436 [5]; 0.3 mg/kg, at the end of treatment): 2/6 | dose dependence among low, medium and high dose groups (breast cancer MDA-MB-436 [5]; 0.03, 0.1, 0.3 mg/kg, P<0.001, P<0.01): significant dose-dependent differences | inhibitory effects on tumor growth compared to blank control group (breast cancer MDA-MB-436 [5]; 24 days, all dose groups): significant inhibitory effects on tumor growth | inhibition of tumor growth in gastric cancer PDX model (gastric cancer PDX; 3 mg/kg p.o. combined with carboplatin 20 mg/kg i.p.): significantly inhibit tumor growth | inhibitory effect on gastric cancer PDX model (gastric cancer PDX; combined with carboplatin (20 mg/kg i.p. once every 7 days), 0.3, 1, 3 mg/kg p.o.): dose-dependent inhibitory effect | IC50 (MDA-MB-436 cells): 0.6 nM | therapeutic efficacy in combination with carboplatin, compared to Olaparib plus carboplatin (SUM14PT; 1 mg/kg orally once daily + carboplatin vs Olaparib 100 mg/kg + carboplatin): better therapeutic efficacy than Olaparib | anti-tumor efficacy, monotherapy, compared to Olaparib (SUM14PT; 0.3 and 1 mg/kg orally once daily vs Olaparib 100 mg/kg orally once daily): better anti-tumor efficacy compared to Olaparib
